Source: US20230257351A1, “SUBSTITUTED N-[…] HAVING P2X4 RECEPTOR ANTAGONISTIC ACTIVITY” (Bayer Aktiengesellschaft, priority 2020, published 2023)

What was measured:
rat P2X4 = molecular target: T1, rat P2X4 (Rattus norvegicus, UniProt P51577); assay: FLIPR Method for Rat P2X4 1321N1 Astrocytoma Cells; assay type: cell-based; conditions: 1321N1 stably expressing rat P2X4; agonist MgATP 5 μM (EC80)
T1 construct: expressed in transfected cells
T1 sequence (P51577 1-388): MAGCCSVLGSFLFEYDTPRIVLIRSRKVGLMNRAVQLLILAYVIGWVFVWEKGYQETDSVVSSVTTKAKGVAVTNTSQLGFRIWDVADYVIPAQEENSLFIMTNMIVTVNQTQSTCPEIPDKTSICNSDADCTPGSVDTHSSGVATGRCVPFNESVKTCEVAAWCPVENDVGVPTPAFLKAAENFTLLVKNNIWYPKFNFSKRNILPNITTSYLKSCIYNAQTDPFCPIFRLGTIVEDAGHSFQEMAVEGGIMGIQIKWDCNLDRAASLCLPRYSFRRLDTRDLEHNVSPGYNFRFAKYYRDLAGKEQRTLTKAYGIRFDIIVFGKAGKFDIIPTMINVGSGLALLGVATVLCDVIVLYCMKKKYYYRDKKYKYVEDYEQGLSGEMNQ
Description: Compounds were tested on a 1321N1 cell line stably expressing rat P2X4. Cells were cultured on collagen-I-coated 384-well plates at a density of 10,000 cells/well and incubated overnight at 37° C., 5% CO2. P2X4 function was assessed by measuring intracellular calcium fluxes caused by Magnesium-ATP (MgATP) using the calcium-chelating dye Fluo8-AM (Molecular Devices) with the Fluorescent Imaging Plate Reader Tetra (FLIPR^Tetra; Molecular Devices CA). On the day of the assay, the medium was removed and the cells were incubated for 30 minutes at 37° C. and 5% CO2 in 30 μl of dye buffer (Hank's balanced salt solution, 10 mM HEPES, 1.8 mM CaCl2, 1 mM MgCl2, 2 mM probenecid, 5 mM D-glucose monohydrate, 5 μM Fluo8-AM, pH=7.4).
Compounds diluted in probenecid buffer (Hank's balanced salt solution, 10 mM HEPES, 1.8 mM CaCl2, 1 mM MgCl2, 2 mM probenecid, 5 mM D-glucose monohydrate, pH=7.4) at ten concentrations ranging from 25 μM to 1 nM (final concentration) were dispensed and incubated for 30 minutes at room temperature. The agonist, MgATP (Sigma-Aldrich Chemie GmbH, DE), was added at a final concentration of 5 μM, representing the EC80 routinely determined. The final assay volume was 50 μl and final DMSO concentration was 0.5%.
The fluorescence intensity reflecting intracellular calcium changes was recorded before and after MgATP addition, at an excitation and emission wavelengths of 470-495 nm and 515-575 nm respectively.
The compounds were tested in triplicates and fluorescence intensity raw data normalized to the agonist control and fitted to the four-parameter logistic equation:
Y=Bottom+(Top−Bottom)/(1+10^((Log IC50−X)*HillSlope))
Assay plate acceptance was based on the signal window (S/B)[…] and the reference compound pIC50 within ±[…] the mean of historic pIC50 of the compound. Failure to meet two of the three criteria determined exclusion of the plate's results. In Table 10 below the results for the assays are reported

human P2X4 = molecular target: T2, human P2X4 (Homo sapiens, UniProt Q99571); assay: Human P2X4 HEK Cell FLIPR Assay; assay type: cell-based; conditions: HEK293 stably expressing human P2X4, agonist Bz-ATP 3 μM (EC80); for IC50: read-out: Human P2X4 HEK Cells (FLIPR Assay) avg IC50
T2 construct: expressed in transfected cells
T2 sequence (Q99571 1-388): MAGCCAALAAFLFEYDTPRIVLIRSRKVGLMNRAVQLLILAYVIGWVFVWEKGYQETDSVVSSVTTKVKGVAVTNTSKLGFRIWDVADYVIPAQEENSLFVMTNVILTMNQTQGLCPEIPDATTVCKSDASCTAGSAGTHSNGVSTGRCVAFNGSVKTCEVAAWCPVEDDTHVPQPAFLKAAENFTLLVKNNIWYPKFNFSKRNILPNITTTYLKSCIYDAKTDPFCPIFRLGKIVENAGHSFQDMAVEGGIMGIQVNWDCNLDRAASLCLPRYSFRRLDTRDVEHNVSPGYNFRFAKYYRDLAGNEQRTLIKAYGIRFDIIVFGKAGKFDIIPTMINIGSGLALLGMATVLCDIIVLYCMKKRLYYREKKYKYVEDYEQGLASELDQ
Outline: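 Compounds were preincubated 30 min at room temperature on Fluo8-AM-loaded HEK293 cells stably expressing human P2X4. The response was the calcium fluorescence rise on Bz-ATP addition.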

Compound	IC50 (rat P2X4) [µM]	Rat P2X4 1321N1 Astrocytoma Cells (FLIPR Assay) avg Efficacy (rat P2X4) [%]	Human P2X4 HEK Cells (FLIPR Assay) avg Efficacy (human P2X4) [%]	IC50 (human P2X4) [µM]
CC(=O)N(c1ccc(F)c(F)c1)c1cc(NC(=O)Cc2cccc(F)c2Cl)ccn1 [Example 71, N-{4-[2-(2-chloro-3-fluorophenyl)acetamido]pyridin-2-yl}-N-(3,4-difluorophenyl)acetamide]	0.165	90	96	0.222
CC(=O)N(c1cccc(Cl)c1)c1cc(NC(=O)Cc2c(F)cccc2Cl)ccn1 [Example 135, N-{4-[2-(2-chloro-6-fluorophenyl)acetamido]pyridin-2-yl}-N-(3-chlorophenyl)acetamide]	0.264	96	99	0.281
CC(=O)N(c1ccc(F)c(F)c1)c1cc(NC(=O)Cc2c(C)cc(Cl)cc2Cl)ccn1 [Example 64, N-{4-[2-(2,4-dichloro-6-methylphenyl)acetamido]pyridin-2-yl}-N-(3,4-difluorophenyl)acetamide]	0.497	100	96	0.829
CC(=O)N(c1ccc(F)c(F)c1)c1cc(NC(=O)Cc2ccccc2Cl)ccn1 [Example 1, N-{4-[2-(2-chlorophenyl)acetamido]pyridin-2-yl}-N-(3,4-difluorophenyl)acetamide]	0.0967	82	89	0.224
CC(=O)N(c1ccc(F)cc1)c1cc(NC(=O)Cc2c(C)cccc2C)ccn1 [Example 34, N-{4-[2-(2,6-dimethylphenyl)acetamido]pyridin-2-yl}-N-(4-fluorophenyl)acetamide]	0.17	94	97	0.199
CC(=O)N(c1cc(C)cc(C#N)c1)c1cc(NC(=O)Cc2ccccc2Cl)ccn1 [Example 175, N-{4-[2-(2-Chlorphenyl)acetamido]pyridin-2-yl}-N-(3-cyan-5-methylphenyl)acetamide]			97	0.516
CC(=O)N(c1cc(F)cc(C#N)c1)c1cc(NC(=O)Cc2c(Cl)cccc2Cl)ccn1 [Example 146, N-(3-Cyan-5-fluorphenyl)-N-{4-[2-(2,6-dichlorphenyl)acetamido]pyridin-2-yl}acetamide]			103	0.337
CC(=O)N(c1ccc(C)c(Cl)c1)c1cc(NC(=O)Cc2c(Cl)cccc2Cl)ccn1 [Example 182, N-(3-Chlor-4-methylphenyl)-N-{4-[2-(2,6-dichlorphenyl)acetamido]pyridin-2-yl}acetamide]			102	0.593
CC(=O)N(c1cccc(C(F)F)c1)c1cc(NC(=O)Cc2ccc(F)cc2Cl)ccn1 [Example 3, N-{4-[2-(2-chloro-4-fluorophenyl)acetamido]pyridin-2-yl}-N-[3-(difluoromethyl)phenyl]acetamide]			98	0.657
CC(=O)N(c1cc(NC(=O)Cc2cccc(F)c2Cl)ccn1)c1ccc(F)cc1Cl [Example 154, N-(2-Chlor-4-fluorphenyl)-N-{4-[2-(2-chlor-3-fluorphenyl)acetamido]pyridin-2-yl}acetamide]			101	0.511
CC(=O)N(c1cccc(F)c1)c1cc(NC(=O)Cc2cccc(F)c2Cl)cnn1 [Example 195, N-{5-[2-(2-chloro-3-fluorophenyl)acetamido]pyridazin-3-yl}-N-(3-fluorophenyl)acetamide]			95	0.486
CC(=O)N(c1cc(F)cc(Cl)c1)c1cc(NC(=O)Cc2cccc(F)c2Cl)ccn1 [Example 138, N-(3-chloro-5-fluorophenyl)-N-{4-[2-(2-chloro-3-fluorophenyl)acetamido]pyridin-2-yl}acetamide]			96	0.316
CC(=O)N(c1cc(NC(=O)Cc2c(Cl)cccc2Cl)ccn1)c1ccc(F)cc1Cl [Example 152, N-(2-Chlor-4-fluorphenyl)-N-{4-[2-(2,6-dichlorphenyl)acetamido]pyridin-2-yl}acetamide]			104	0.441
CC(=O)N(c1cc(F)c(C)c(F)c1)c1cc(NC(=O)Cc2cccc(F)c2Cl)ccn1 [Example 94, N-{4-[2-(2-chloro-3-fluorophenyl)acetamido]pyridin-2-yl}-N-(3,5-difluoro-4-methylphenyl)acetamide]			97	0.71
CC(=O)N(c1ccc(F)cc1)c1cc(NC(=O)Cc2ccc(Cl)cc2C(F)(F)F)ccn1 [Example 31, N-(4-{2-[4-chloro-2-(trifluoromethyl)phenyl]acetamido}pyridin-2-yl)-N-(4-fluorophenyl)acetamide]			100	0.909
CC(=O)N(c1ccc(Cl)c(C#N)c1)c1cc(NC(=O)Cc2c(Cl)cccc2Cl)ccn1 [Example 19, N-(4-chloro-3-cyanophenyl)-N-{4-[2-(2,6-dichlorophenyl)acetamido]pyridin-2-yl}acetamide]			103	0.542
CC(=O)N(c1cc(NC(=O)Cc2ccc(F)cc2Cl)ccn1)c1ccccc1F [Example 116, N-{4-[2-(2-chloro-4-fluorophenyl)acetamido]pyridin-2-yl}-N-(2-fluorophenyl)acetamide]			97	0.52
CC(=O)N(c1cc(F)c(C)c(F)c1)c1cc(NC(=O)Cc2ccccc2Cl)ccn1 [Example 92, N-{4-[2-(2-chlorophenyl)acetamido]pyridin-2-yl}-N-(3,5-difluoro-4-methylphenyl)acetamide]			97	0.568
CC(=O)N(c1cccc(F)c1)c1cc(NC(=O)Cc2ccccc2Cl)cnn1 [Example 196, N-{5-[2-(2-chlorophenyl)acetamido]pyridazin-3-yl}-N-(3-fluorophenyl)acetamide]			94	0.546
CC(=O)N(c1ccc(F)c(F)c1)c1cc(NC(=O)Cc2c(Cl)cccc2Cl)cnn1 [Example 200, N-{5-[2-(2,6-dichlorophenyl)acetamido]pyridazin-3-yl}-N-(3,4-difluorophenyl)acetamide]			91	0.465
CC(=O)N(c1ccc(OC(F)F)cc1)c1cc(NC(=O)Cc2ccccc2Cl)ccn1 [Example 47, N-{4-[2-(2-chlorophenyl)acetamido]pyridin-2-yl}-N-[4-(difluoromethoxy)phenyl]acetamide]			98	0.519
CC(=O)N(c1cc(NC(=O)Cc2ccc(F)cc2Cl)ccn1)c1ccccc1C(F)F [Example 169, N-{4-[2-(2-Chlor-4-fluorphenyl)acetamido]pyridin-2-yl}-N-[2-(difluormethyl)phenyl]acetamide]			101	0.813
